How the values were obtained:
[1] = tested on: Human umbilical vein endothelial cells (HUVECs); assay: Measurement of 50% lethal concentration for HUVEC (alamarBlue); format: cell-based; conditions: 72 hours incubation, 250 μM = maximum concentration dissolved in DMSO
Description: Human umbilical vein endothelial cells (HUVECs) (ATCC CRL-1730) were obtained from American Type Culture Collection and precultivated in an Endothelial Cell Growth Medium (CELL APPLICATIONS, USA) containing 10% bovine fetal serum supplemented with 1% Antibiotic-Antimycotic solution (GIBCO BRL, USA) under a 5% CO2 atmosphere at 37° C.
A Matrigel matrix (BD Biosciences, USA) was melted and kept at 4° C. on ice, and then, 50 μL of the matrix were transferred to each well of a 96-well tissue culture plate. The plate was incubated at 37° C. for at least one hour to solidify the matrix solution. […]
After the incubation, 20 μL of a 90% alamarBlue reagent were added to individual wells, and incubated for an additional 6 hours. Then, the fluorescence intensity of each well was measured at an excitation wavelength of 530 nm and an emission wavelength of 590 nm using a Spectrafluor Plus plate reader to count the number of living cells. […] The 50% lethal concentration was calculated as the concentration at which the number of living cells was 50% of the number of cells at the start of the experiment.

[2] = tested on: hair regrowth in telogen-phase C3H/HeN Slc mice; assay: Examination of trichogenous effect (hair regrowth on shaved back of mice); format: in vivo; conditions: 10 mg/mL test solution
Description: The trichogenous effect in mice of the astaxanthin monoester obtained in Preparation Example 1 was examined. The astaxanthin monoester obtained in Preparation Example 1 was dissolved in 20% (v/v) ethanol-containing a-tocopherol to prepare a 10 mg/mL astaxanthin monoester test solution. Male 7-week-old C3H/HeN Slc (SPF) mice were divided into three groups, i.e., a test group, a positive control group, and a negative control group, of 10 each. It should be noted that 45 to 95-day-old C3H mice are in the telogen phase of the hair cycle. Hairs were shaved from a site measuring 5 cm x 3 cm on the back of each mouse, and the above-described test solution was applied to that site in a dosage of 0.05 mL once a day for 18 days to observe the conditions of hair regrowth. In the positive control group, 1% (w/v) minoxidil (in 50% (v/v) ethanol), and in the negative control group, 50% (v/v) ethanol were applied. The conditions of hair regrowth were evaluated, using the following scoring criteria, expressed in terms of percentage of the surface area of the test site where the observed change occurred.
1: skin changed to gray (in less than 50% of area)
2: skin changed to gray (in 50% or more of area) and hair regrowth was observed (in less than 50% of area)
3: skin changed to gray (in 50% or more of area) and hair regrowth was observed (in 50% or more but less than 80% of area)
4: hair regrowth was observed distinctly (in 80% or more but less than 100% of area)
5: hair regrowth was observed distinctly (in 100% of area)

## astaxanthin monoester
[1]
  LC50 (50% lethal concentration): ≥ 250 µM
[2]; 0.05 mL applied once a day for 18 days to shaved back of male C3H/HeN mice, vs 50% ethanol
  trichogenous effect (hair regrowth scoring) compared to negative control group: markedly superior trichogenous effect
[2]; 0.05 mL once a day for 18 days, topical, mice, vs 1% (w/v) minoxidil
  appearance (onset) of trichogenous effect compared to positive control group: appeared a little later than in the positive control group
[2]; 0.05 mL once a day for 18 days, topical, mice, vs 1% minoxidil and negative control
  rate of progress of hair regrowth after the hairs begun to grow: higher than that in the positive control group
